Assay results from patent publication US8242166B2, “C(10) ethyl ester and C(10) cyclopropyl ester substituted taxanes” (Florida State University Research Foundation, Inc., priority 2008, dated 2012).
Where “and” joins values, the source holds several entries; their conditions need not be identical. Equal entries are not always repeated. Where two headings read alike, the source gives them in different places.

Legend:
[1] = system: MX1 human tumor xenografts; conditions: 25 mg/kg iv qd × 1
A375 = assay: MTT cytotoxicity (IC50), A375; assay type: cell-based; conditions: Homo sapiens, A-375
Outline: (§1)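 Absorbance at 570 nm after a 1 h MTT incubation gave viability. Before that, adhered cells had been treated for 72 h with seven 2-fold dilutions run in triplicate, final DMSO 0.1%.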

[2] = system: human BxPC-3 human pancreatic xenograft; assay type: in vivo; conditions: for T/C % values: from D33
Description: Method: Twenty four (24) hours after a whole body irradiation with a γ-source (7.0 Gy, Co^60, INRA, Dijon, France) 20×10^6 BxPC-3 cells in 200 μl of RPMI 1640 culture medium were subcutaneously injected in the right flank of 8 female Nude rats to generate tumor material. When the tumor size reaches approximately 1,000 mm^3, the tumors were surgically excised for implantation into recipient Nude female rats. Twenty four (24) hours after a whole body irradiation (7.0 Gy, Co^60, INRA, Dijon, France), fresh BxPC-3 tumor fragments were sc implanted in the right flank of 52 Nude female rats (1 fragment/rat) at D0 using surgical pliers and skin was stitched. The antitumor activity study was started at D21 when the mean tumor volume has reached 321.6±131.2 mm^3. Before the start of treatments, 42 tumor bearing rats out of 52 grafted were randomized into 7 groups of 6 animals.
[…]. At 7 mg/kg/inj, only two treatments were performed at D21 and D42 due to severe body weight loss.

TK-10 = assay: MTT cytotoxicity (IC50), TK-10; assay type: cell-based; conditions: Homo sapiens, 72 h, read-out: IN Vitro IC50 (nm) TK10
Outline: as §1

[3] = system: human HT29 colon carcinoma xenografts
[4] = system: HT29 human tumor xenografts; assay: HT29 xenograft study e139 (Example 23); assay type: in vivo, nude mice
SK-MEL-28 = assay: MTT cytotoxicity (IC50), SK-MEL-28; assay type: cell-based; conditions: Homo sapiens, 72 h, read-out: IN Vitro IC50 (nm) ske-mel28
Outline: as §1

[5] = system: human A375 melanoma xenograft; assay: A375 xenograft study e209 (Example 27); conditions: 25 mg/kg iv qwk × 3
Description: The endpoint was a tumor volume of 2,000 mm^3 and the study was terminated on Day 56. Efficacy was assessed by tumor growth delay and the number of partial and complete regressions. Animals with a CR that persisted through Day 56 were classified as long-term tumor-free survivors (TFS).

A549 = assay: MTT cytotoxicity (IC50), A549; assay type: cell-based; conditions: Homo sapiens, 72 h, read-out: IN Vitro IC50 (nm) A549
Outline: as §1

[6] = system: HT29 human tumor xenografts; assay: HT29 xenograft study e210, oral and i.v. (Example 25); conditions: 25 mg/kg iv qwk × 3
Text: The formulation for oral studies was an ethanol and Cremophor formulation while the formulation for compound 18365 and compound 19244 dosed i.v. was 5% ethanol and 95% Liposyn II 20%.

DLD-1 = assay: MTT cytotoxicity (IC50), DLD-1; assay type: cell-based; conditions: Homo sapiens
Outline: as §1

CC(=O)O[C@@]12CO[C@@H]1C[C@H](O)[C@@]1(C)C(=O)[C@H](O)C3=C(C)[C@@H](OC(=O)[C@H](O)[C@@H](NC(=O)OC(C)(C)C)c4ccccc4)C[C@@](O)([C@@H](OC(=O)c4ccccc4)[C@H]21)C3(C)C [Docetaxel, docetaxel, reference compound]
% TGD [1]: 249.47%
MTV (n), Day 60 [1]: 0.00 (3) mm^3
Median TTE [1]: 60 days
T-C [1]: 42.83 days
CR (complete regression) ([1]; n=5): 3
NTR (non-treatment-related death) ([1]; n=5): 0
PR (partial regression) ([1]; n=5): 0
TFS (tumor-free survivor) ([1]; n=5): 2
TR (treatment-related death) ([1]; n=5): 0
mice survived to D60 ([1]; n=5): Three
transient CR ([1]; n=5): 1
IC50 (A375; MTT, 72 h, read-out: IN Vitro IC50 (nm) A375): 2.4 nM
IC50 (A375; Resistance MRP9, read-out: A375 Melanoma (Table 4, quantity not named; IC50 values as Table 2)): 2.4 nM
rats found dead ([2]; 5 mg/kg/inj IV, 6 rats per group): 2
rats found dead ([2]; 5 mg/kg/inj IV, 6 rats per group, listed as TXT): two
optimal T/C % value ([2]; 5 mg/kg/inj IV, at D60): 3.8%
animals with complete tumor regression ([2]; 5 mg/kg/inj IV, at D81 (final sacrifice), 6 rats per group): one
T/C % values ([2]; 5 mg/kg/inj IV): lower than 42%
rats found dead ([2]; 7 mg/kg/inj IV, 6 rats per group): 2
rats found dead ([2]; 7 mg/kg/inj IV, 6 rats per group, listed as TXT): Two
optimal T/C % value ([2]; 7 mg/kg/inj IV, at D56): 12.3%
T/C % values ([2]; 7 mg/kg/inj IV): lower than 42%
antitumor activity ([2]; repeated IV injections at 5 and 7 mg/kg/inj): marked antitumor activity
IC50 (TK-10): 1.4 nM
LTTFS ([3]; 25 mg/kg q7d×3, six mice): one
PR responses ([3]; 25 mg/kg q7d×3, six mice): 4
Number of Death NTR ([3]; mouse, in vivo): 0
Number of Death TR ([3]; mouse, in vivo): 0
Day 54 mm^3 (tumor size) ([4]; 25 mg/kg iv q7d × 3): 180.6 mm^3
Max. BW Loss %; Day ([4]; 25 mg/kg iv q7d × 3): −14.4%; Day 19
Number of Death NTR ([4]; 25 mg/kg iv q7d × 3, N=6): 0
Number of Death TR ([4]; 25 mg/kg iv q7d × 3, N=6): 0
TGD ([4]; 25 mg/kg q7d×3): 210%
group mean body-weight (BW) loss ([4]; 25 mg/kg q7d×3): 14.4%
MTV (Day 61) ([4]; 25 mg/kg q7d×3, five mice): 196 mm^3
LTTFS ([4]; 25 mg/kg q7d×3, six mice): 1
PR responses ([4]; 25 mg/kg q7d×3, six mice): 5
IC50 (SK-MEL-28): 2.1 nM
BW Nadir [5]: −4.0% (25)
CR (complete regression) ([5]; n=6): 0
NTR NTRm ([5]; n=6): 0
PR (partial regression) ([5]; n=6): 0
TFS (tumor-free survivor) ([5]; n=6): 0
TR (treatment-related death) ([5]; n=6): 0
% TGD ([5]; vehicle ET): 49.06%
Median TTE ([5]; vehicle ET): 26.92 days
T-C (tumor growth delay) ([5]; vehicle ET, listed as 2): 8.9 days and 8.86 days
IC50 (A549): 1.3 nM
% TGD [6]: 214.3%
MTV (n), Day 60 [6]: 40.00 (6) mm^3
Median TTE [6]: 60 days
T-C [6]: 40.91 days
CR (complete regression) ([6]; n=6): 4
NTR NTRm ([6]; n=6): 0
PR (partial regression) ([6]; n=6): 2
TFS (tumor-free survivor) ([6]; n=6): 2
TR (treatment-related death) ([6]; n=6): 0
IC50 (DLD-1; MTT, 72 h, read-out: IN Vitro IC50 (nm) DLD1): > 10 nM
IC50 (DLD-1; Resistance MDR1+, read-out: DLD1 Colon (Table 4, quantity not named; IC50 values as Table 2)): 20 nM
